{"source": "patent US9259452B2", "about": "“Deacetylase inhibitor therapy” (Celgene Corporation, priority 2006, dated 2016)", "origin": "cited, not measured here", "conditions": "cited from earlier work; for ECG effects reported: clinical trials", "note": "Like-named read-outs stand apart in the source and are kept apart here."}
{"smiles": "Cc1[nH]c2ccccc2c1CCNCc1ccc(/C=C/C(=O)NO)cc1", "note": "[LBH589]", "values": [{"measurement": "Patients with QTc prolongation of greater than 500 ms", "setting": "12 patients treated at higher dose levels", "result": 42, "unit": "%"}, {"measurement": "Patients with QTc prolongation of greater than 500 ms", "setting": "of 12 patients treated at higher dose levels", "result": 5}]}
{"smiles": "O=C(/C=C/c1ccc(CN(CCO)CCc2cc3ccccc3[nH]2)cc1)NO", "note": "[LAQ824]", "values": [{"measurement": "Change in QTc interval", "setting": "77 patients treated", "result": "statistically significant increase"}, {"measurement": "ECG effects reported", "result": "non-specific T-wave or ST segment abnormalities"}, {"measurement": "Patients having QTc prolongation of greater than 60 ms", "setting": "of 77 patients treated", "result": 10, "unit": "%"}, {"measurement": "Event in one patient with QTc greater than 500 ms", "setting": "when re-treated at a lower dose level", "result": "torsades de pointes"}]}
{"smiles": "O=C(/C=C/c1cccc(S(=O)(=O)Nc2ccccc2)c1)NO", "note": "[PXD101]", "values": [{"measurement": "Supraventricular tachycardia reported", "setting": "phase I trials", "result": "dose limiting toxicity"}]}
{"smiles": "O=C(CCCCCCC(=O)Nc1ccccc1)NO", "note": "[SAHA, Suberoylanilide Hydroxamic Acid]", "values": [{"measurement": "ECG effects reported", "result": "non-specific T-wave or ST segment abnormalities"}]}
